According to US10844077B2, “Thiazolyl-containing compounds for treating proliferative diseases” (Dana-Farber Cancer Institute, Inc., priority 2014, dated 2020):
Where two headings read alike, the source gives them in different places.

Legend:
Format in all cases: binding
broad panel of kinases [1] = molecular target: broad panel of kinases (Homo sapiens, UniProt Q56UN5); conditions: YSK4; 1 μM
broad panel of kinases [2] = molecular target: broad panel of kinases (Homo sapiens, UniProt Q07912); conditions: TNK2; 1 μM
broad panel of kinases [3] = molecular target: broad panel of kinases (Homo sapiens, UniProt O60674); conditions: JAK2(JH1domain-catalytic); 1 μM
broad panel of kinases [4] = molecular target: broad panel of kinases (Homo sapiens, UniProt P07949); conditions: RET; 1 μM
broad panel of kinases [5] = molecular target: broad panel of kinases (Homo sapiens, UniProt Q05655); conditions: PRKCD; 1 μM
broad panel of kinases [6] = molecular target: broad panel of kinases (Homo sapiens, UniProt P11802); conditions: 1 μM
broad panel of kinases [7] = molecular target: broad panel of kinases (Homo sapiens, UniProt Q9H2X6); conditions: HIPK2; 1 μM
broad panel of kinases [8] = molecular target: broad panel of kinases (Homo sapiens, UniProt P42336); conditions: PIK3CA; 1 μM
broad panel of kinases [9] = molecular target: broad panel of kinases (Homo sapiens, UniProt P16591); conditions: FER; 1 μM
broad panel of kinases [10] = molecular target: broad panel of kinases (Homo sapiens, UniProt P00519); conditions: 1 μM
broad panel of kinases [11] = molecular target: broad panel of kinases (Homo sapiens, UniProt P45984); conditions: JNK2; 1 μM
broad panel of kinases [12] = molecular target: broad panel of kinases (Homo sapiens, UniProt O94921); conditions: PFTK1; 1 μM
broad panel of kinases [13] = molecular target: broad panel of kinases (Homo sapiens, UniProt O14757); conditions: CHEK1; 1 μM
broad panel of kinases [14] = molecular target: broad panel of kinases (Homo sapiens, UniProt Q9Y2H9); conditions: MAST1; 1 μM
broad panel of kinases [15] = molecular target: broad panel of kinases (Homo sapiens, UniProt Q9NRP7); conditions: STK36; 1 μM
broad panel of kinases [16] = molecular target: broad panel of kinases (Homo sapiens, UniProt Q8NI60); conditions: ADCK3; 1 μM
broad panel of kinases [17] = molecular target: broad panel of kinases (Homo sapiens, UniProt Q8N5S9); conditions: CAMKK1; 1 μM
broad panel of kinases [18] = molecular target: broad panel of kinases (Homo sapiens, UniProt P00519, Y253F); conditions: ABL1(Y253F)-phosphorylated; 1 μM
broad panel of kinases [19] = molecular target: broad panel of kinases (Homo sapiens, UniProt P09619); conditions: PDGFRB; 1 μM
broad panel of kinases [20] = molecular target: broad panel of kinases (Homo sapiens, UniProt Q6P3R8); conditions: NEK5; 1 μM
broad panel of kinases [21] = molecular target: broad panel of kinases (Homo sapiens, UniProt P10721, L576P); conditions: KIT(L576P); 1 μM
broad panel of kinases [22] = molecular target: broad panel of kinases (Homo sapiens, UniProt Q9H422); conditions: HIPK3; 1 μM
broad panel of kinases [23] = molecular target: broad panel of kinases (Homo sapiens, UniProt P35968); conditions: VEGFR2; 1 μM
broad panel of kinases [24] = molecular target: broad panel of kinases (Mycobacterium tuberculosis, UniProt P9WI81)
broad panel of kinases [25] = molecular target: broad panel of kinases (Homo sapiens, UniProt Q8NE63); conditions: HIPK4; 1 μM
broad panel of kinases [26] = molecular target: broad panel of kinases (Homo sapiens, UniProt P15056); conditions: BRAF; 1 μM
broad panel of kinases [27] = molecular target: broad panel of kinases (Homo sapiens, UniProt P27037); conditions: ACVR2A; 1 μM
broad panel of kinases [28] = molecular target: broad panel of kinases (Homo sapiens, UniProt P08581, Y1235D); conditions: MET(Y1235D); 1 μM
broad panel of kinases [29] = molecular target: broad panel of kinases (Homo sapiens, UniProt Q15418); conditions: 1 μM
broad panel of kinases [30] = molecular target: broad panel of kinases (Homo sapiens, UniProt Q15303); conditions: ERBB4; 1 μM
broad panel of kinases [31] = molecular target: broad panel of kinases (Homo sapiens, UniProt Q9Y6R4); conditions: MAP3K4; 1 μM
broad panel of kinases [32] = molecular target: broad panel of kinases (Homo sapiens, UniProt Q15835); conditions: GRK1; 1 μM
broad panel of kinases [33] = molecular target: broad panel of kinases (Homo sapiens, UniProt P42336, E545A); conditions: PIK3CA(E545A); 1 μM
broad panel of kinases [34] = molecular target: broad panel of kinases (Homo sapiens, UniProt P23443); conditions: S6K1; 1 μM
broad panel of kinases [35] = molecular target: broad panel of kinases (Homo sapiens, UniProt P52333); conditions: JAK3(JH1domain-catalytic); 1 μM
broad panel of kinases [36] = molecular target: broad panel of kinases (Homo sapiens, UniProt P0C1S8); conditions: WEE2; 1 μM

broad panel of kinases (Homo sapiens, UniProt P11802), sequence (P11802 2-303 limits assumed): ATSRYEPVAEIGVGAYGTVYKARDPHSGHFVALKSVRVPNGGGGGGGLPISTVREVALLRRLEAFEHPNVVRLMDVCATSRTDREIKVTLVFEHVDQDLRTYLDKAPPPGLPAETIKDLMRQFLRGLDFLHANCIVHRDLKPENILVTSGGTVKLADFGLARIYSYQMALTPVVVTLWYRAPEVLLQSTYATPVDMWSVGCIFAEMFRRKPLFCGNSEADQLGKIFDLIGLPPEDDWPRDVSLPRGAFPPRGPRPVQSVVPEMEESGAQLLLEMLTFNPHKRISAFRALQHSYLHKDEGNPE
broad panel of kinases (Homo sapiens, UniProt P35968), sequence (P35968 20-1356 limits assumed): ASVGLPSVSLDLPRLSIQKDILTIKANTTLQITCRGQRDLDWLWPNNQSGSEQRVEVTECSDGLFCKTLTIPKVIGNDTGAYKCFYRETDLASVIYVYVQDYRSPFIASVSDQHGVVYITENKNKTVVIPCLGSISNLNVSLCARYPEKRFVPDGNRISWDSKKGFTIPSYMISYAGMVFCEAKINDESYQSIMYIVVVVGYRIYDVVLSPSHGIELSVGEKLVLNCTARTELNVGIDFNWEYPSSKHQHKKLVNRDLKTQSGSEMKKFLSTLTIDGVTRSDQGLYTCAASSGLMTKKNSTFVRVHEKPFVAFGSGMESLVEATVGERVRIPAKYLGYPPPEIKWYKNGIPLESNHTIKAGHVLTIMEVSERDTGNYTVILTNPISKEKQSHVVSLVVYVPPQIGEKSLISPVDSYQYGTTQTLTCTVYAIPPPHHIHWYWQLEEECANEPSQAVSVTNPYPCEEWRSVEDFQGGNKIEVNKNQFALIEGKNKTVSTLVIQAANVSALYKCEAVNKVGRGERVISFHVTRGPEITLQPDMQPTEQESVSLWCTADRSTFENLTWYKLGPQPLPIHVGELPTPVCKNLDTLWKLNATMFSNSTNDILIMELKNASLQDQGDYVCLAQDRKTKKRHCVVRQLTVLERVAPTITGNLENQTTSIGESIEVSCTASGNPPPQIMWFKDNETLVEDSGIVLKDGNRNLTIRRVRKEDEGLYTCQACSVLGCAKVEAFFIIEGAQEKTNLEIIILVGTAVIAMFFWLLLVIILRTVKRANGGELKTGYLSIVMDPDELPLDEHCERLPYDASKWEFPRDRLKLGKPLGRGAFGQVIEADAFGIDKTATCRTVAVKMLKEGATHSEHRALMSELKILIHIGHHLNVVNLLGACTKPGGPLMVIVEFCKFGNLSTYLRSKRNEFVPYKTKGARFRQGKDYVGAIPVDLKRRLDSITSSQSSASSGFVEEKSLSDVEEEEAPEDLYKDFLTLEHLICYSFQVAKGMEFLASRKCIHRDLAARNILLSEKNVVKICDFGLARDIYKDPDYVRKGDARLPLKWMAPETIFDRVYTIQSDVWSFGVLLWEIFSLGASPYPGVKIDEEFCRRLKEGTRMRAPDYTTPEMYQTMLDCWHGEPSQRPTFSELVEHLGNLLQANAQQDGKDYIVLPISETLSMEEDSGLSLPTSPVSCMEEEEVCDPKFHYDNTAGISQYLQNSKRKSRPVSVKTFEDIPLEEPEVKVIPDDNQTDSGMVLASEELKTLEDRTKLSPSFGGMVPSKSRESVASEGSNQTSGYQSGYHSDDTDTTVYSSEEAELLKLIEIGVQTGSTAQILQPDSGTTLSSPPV
broad panel of kinases (Homo sapiens, UniProt Q8NI60), sequence (Q8NI60 163-647 limits assumed): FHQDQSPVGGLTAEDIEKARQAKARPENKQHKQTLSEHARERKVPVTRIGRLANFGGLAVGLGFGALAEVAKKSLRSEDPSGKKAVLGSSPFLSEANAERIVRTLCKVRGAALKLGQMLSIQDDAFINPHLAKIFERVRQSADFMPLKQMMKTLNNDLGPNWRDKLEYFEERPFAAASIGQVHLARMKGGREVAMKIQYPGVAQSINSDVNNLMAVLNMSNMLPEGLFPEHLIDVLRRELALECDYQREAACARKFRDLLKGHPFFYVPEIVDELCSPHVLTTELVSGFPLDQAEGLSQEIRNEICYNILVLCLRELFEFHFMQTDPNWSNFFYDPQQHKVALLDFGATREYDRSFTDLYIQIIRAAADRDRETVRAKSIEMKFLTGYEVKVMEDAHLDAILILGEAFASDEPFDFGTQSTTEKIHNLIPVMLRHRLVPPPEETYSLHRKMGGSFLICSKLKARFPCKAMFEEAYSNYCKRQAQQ
broad panel of kinases (Homo sapiens, UniProt Q15303), sequence (Q15303 26-1308 limits assumed): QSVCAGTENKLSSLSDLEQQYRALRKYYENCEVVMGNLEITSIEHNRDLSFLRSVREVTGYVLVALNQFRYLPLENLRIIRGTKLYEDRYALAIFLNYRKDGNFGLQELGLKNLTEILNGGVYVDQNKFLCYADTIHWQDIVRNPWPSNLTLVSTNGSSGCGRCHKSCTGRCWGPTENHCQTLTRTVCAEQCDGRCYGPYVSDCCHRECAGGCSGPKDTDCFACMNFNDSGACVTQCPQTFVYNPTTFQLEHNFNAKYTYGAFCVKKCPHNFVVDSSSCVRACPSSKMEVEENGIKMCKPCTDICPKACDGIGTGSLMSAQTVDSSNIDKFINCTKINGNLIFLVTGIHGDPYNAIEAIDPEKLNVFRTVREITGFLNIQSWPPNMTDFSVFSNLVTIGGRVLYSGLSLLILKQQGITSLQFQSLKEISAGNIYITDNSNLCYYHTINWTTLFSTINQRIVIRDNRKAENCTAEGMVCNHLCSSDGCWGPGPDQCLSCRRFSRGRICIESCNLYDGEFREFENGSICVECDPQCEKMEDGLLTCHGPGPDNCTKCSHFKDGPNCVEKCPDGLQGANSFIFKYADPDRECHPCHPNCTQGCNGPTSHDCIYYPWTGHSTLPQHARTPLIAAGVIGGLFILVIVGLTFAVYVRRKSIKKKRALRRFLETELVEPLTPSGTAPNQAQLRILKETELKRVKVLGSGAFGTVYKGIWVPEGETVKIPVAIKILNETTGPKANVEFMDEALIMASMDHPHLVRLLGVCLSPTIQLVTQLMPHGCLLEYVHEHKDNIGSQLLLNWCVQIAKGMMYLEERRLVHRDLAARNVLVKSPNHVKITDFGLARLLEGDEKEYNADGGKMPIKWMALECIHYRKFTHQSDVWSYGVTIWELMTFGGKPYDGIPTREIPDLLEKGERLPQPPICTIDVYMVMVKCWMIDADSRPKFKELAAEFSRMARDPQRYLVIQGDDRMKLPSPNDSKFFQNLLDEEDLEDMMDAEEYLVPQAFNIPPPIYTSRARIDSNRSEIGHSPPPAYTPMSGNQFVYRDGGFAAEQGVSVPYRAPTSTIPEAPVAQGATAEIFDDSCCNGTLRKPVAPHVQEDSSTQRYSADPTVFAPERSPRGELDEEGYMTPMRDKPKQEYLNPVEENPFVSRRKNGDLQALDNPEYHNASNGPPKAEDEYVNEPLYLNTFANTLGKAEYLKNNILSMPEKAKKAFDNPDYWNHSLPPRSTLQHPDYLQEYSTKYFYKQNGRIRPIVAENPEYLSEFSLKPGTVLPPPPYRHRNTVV
broad panel of kinases (Mycobacterium tuberculosis, UniProt P9WI81), sequence (P9WI81 2-626 limits assumed): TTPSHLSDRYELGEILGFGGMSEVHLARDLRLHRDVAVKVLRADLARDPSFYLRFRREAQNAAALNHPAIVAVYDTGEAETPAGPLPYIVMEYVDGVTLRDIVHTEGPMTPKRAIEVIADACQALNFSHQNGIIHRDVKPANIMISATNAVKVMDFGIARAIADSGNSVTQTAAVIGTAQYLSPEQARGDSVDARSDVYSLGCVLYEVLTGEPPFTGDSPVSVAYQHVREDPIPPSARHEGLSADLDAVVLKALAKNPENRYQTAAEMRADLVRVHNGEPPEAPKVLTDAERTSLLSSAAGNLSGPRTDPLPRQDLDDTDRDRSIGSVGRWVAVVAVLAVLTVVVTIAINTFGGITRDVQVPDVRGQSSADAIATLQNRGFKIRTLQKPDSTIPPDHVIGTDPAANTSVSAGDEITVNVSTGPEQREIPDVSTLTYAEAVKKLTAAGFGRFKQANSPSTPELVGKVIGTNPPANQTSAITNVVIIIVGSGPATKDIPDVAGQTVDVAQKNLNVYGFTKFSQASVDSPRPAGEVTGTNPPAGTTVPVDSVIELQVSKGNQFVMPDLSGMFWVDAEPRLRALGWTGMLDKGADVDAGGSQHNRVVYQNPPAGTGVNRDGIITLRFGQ
broad panel of kinases (Homo sapiens, UniProt P15056), sequence (P15056 2-766 limits assumed): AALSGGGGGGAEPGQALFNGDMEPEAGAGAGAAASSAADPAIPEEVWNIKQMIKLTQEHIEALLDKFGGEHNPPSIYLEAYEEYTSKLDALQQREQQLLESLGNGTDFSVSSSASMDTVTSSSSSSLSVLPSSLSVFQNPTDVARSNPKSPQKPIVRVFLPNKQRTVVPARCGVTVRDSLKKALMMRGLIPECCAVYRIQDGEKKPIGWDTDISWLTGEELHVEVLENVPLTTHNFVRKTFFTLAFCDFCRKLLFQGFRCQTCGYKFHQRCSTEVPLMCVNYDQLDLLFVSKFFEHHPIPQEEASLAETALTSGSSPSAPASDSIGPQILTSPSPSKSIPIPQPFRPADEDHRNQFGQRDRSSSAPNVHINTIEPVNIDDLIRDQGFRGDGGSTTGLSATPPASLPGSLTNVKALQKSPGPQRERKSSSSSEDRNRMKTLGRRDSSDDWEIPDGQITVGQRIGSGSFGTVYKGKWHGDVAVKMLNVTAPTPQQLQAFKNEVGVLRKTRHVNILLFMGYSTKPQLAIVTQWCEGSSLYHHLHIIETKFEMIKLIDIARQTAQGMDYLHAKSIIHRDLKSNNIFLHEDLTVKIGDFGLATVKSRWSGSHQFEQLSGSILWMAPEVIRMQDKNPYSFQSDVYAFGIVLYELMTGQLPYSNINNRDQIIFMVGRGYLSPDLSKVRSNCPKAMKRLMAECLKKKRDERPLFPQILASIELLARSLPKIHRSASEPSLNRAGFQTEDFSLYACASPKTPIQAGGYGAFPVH

For `C=CC(=O)N1CC[C@H](Nc2nc(CN3CCOCC3)cc(Nc3ncc(C(=O)Nc4c(C)cccc4C)s3)n2)C1` [Example I-2], the “percent of control binding remaining (lower = stronger binding)” value (broad panel of kinases [1]) was 100%, the “percent of control binding remaining (lower = stronger binding)” value (broad panel of kinases [2]) was 31% and the “percent of control binding remaining (lower = stronger binding)” value (broad panel of kinases [3]) was 65%. For the same compound, the “percent of control binding remaining (lower = stronger binding)” value (broad panel of kinases [4]) was 100%, the “percent of control binding remaining (lower = stronger binding)” value (broad panel of kinases [5]) was 96% and the “percent of control binding remaining (lower = stronger binding)” value (broad panel of kinases [6]; CDK4-cyclinD1) was 96%. For the same compound, the “percent of control binding remaining (lower = stronger binding)” value (broad panel of kinases [6]; CDK4-cyclinD3) was 94%, the “percent of control binding remaining (lower = stronger binding)” value (broad panel of kinases [7]) was 97% and the “percent of control binding remaining (lower = stronger binding)” value (broad panel of kinases [8]) was 100%. For the same compound, the “percent of control binding remaining (lower = stronger binding)” value (broad panel of kinases [9]) was 100%, the “percent of control binding remaining (lower = stronger binding)” value (broad panel of kinases [10]; ABL1-nonphosphorylated) was 0.05% and the “percent of control binding remaining (lower = stronger binding)” value (broad panel of kinases [10]; ABL1-phosphorylated) was 0%. For the same compound, the “percent of control binding remaining (lower = stronger binding)” value (broad panel of kinases [11]) was 100%, the “percent of control binding remaining (lower = stronger binding)” value (broad panel of kinases [12]) was 72% and the “percent of control binding remaining (lower = stronger binding)” value (broad panel of kinases [13]) was 88%. The “percent of control binding remaining (lower = stronger binding)” value (broad panel of kinases [14]) was 98%, the “percent of control binding remaining (lower = stronger binding)” value (broad panel of kinases [15]) was 3.5% and the “percent of control binding remaining (lower = stronger binding)” value (broad panel of kinases [16]) was 9.2%. For the same compound, the “percent of control binding remaining (lower = stronger binding)” value (broad panel of kinases [17]) was 100%, the “percent of control binding remaining (lower = stronger binding)” value (broad panel of kinases [18]) was 0.1% and the “percent of control binding remaining (lower = stronger binding)” value (broad panel of kinases [19]) was 0%. The “percent of control binding remaining (lower = stronger binding)” value (broad panel of kinases [20]) was 96%, the “percent of control binding remaining (lower = stronger binding)” value (broad panel of kinases [21]) was 0% and the “percent of control binding remaining (lower = stronger binding)” value (broad panel of kinases [22]) was 95%. The “percent of control binding remaining (lower = stronger binding)” value (broad panel of kinases [23]) was 100%, the “% change compared to control” value (broad panel of kinases [24]) was 73% and the “percent of control binding remaining (lower = stronger binding)” value (broad panel of kinases [25]) was 100%. For the same compound, the “percent of control binding remaining (lower = stronger binding)” value (broad panel of kinases [26]) was 4.4%, the “percent of control binding remaining (lower = stronger binding)” value (broad panel of kinases [27]) was 76% and the “percent of control binding remaining (lower = stronger binding)” value (broad panel of kinases [28]) was 95%. The “percent of control binding remaining (lower = stronger binding)” value (broad panel of kinases [29]; RSK1(Kin.Dom.1-N-terminal)) was 73%, the “percent of control binding remaining (lower = stronger binding)” value (broad panel of kinases [29]; RSK1(Kin.Dom.2-C-terminal)) was 100% and the “percent of control binding remaining (lower = stronger binding)” value (broad panel of kinases [30]) was 0.6%. For the same compound, the “percent of control binding remaining (lower = stronger binding)” value (broad panel of kinases [31]) was 83%, the “percent of control binding remaining (lower = stronger binding)” value (broad panel of kinases [32]) was 94% and the “percent of control binding remaining (lower = stronger binding)” value (broad panel of kinases [33]) was 100%. The “percent of control binding remaining (lower = stronger binding)” value (broad panel of kinases [34]) was 100%, the “percent of control binding remaining (lower = stronger binding)” value (broad panel of kinases [35]) was 0% and the “percent of control binding remaining (lower = stronger binding)” value (broad panel of kinases [36]) was 100%.
In the case of `C=CC(=O)N1CC[C@H](Nc2nccc(Nc3ncc(C(=O)Nc4c(C)cccc4C)s3)n2)C1` [Example I-3], the “percent of control binding remaining (lower = stronger binding)” value (broad panel of kinases [1]) is reported as 100%, the “percent of control binding remaining (lower = stronger binding)” value (broad panel of kinases [2]) is reported as 43% and the “percent of control binding remaining (lower = stronger binding)” value (broad panel of kinases [3]) is reported as 82%. For the same compound, the “percent of control binding remaining (lower = stronger binding)” value (broad panel of kinases [4]) was 86%, the “percent of control binding remaining (lower = stronger binding)” value (broad panel of kinases [5]) was 95% and the “percent of control binding remaining (lower = stronger binding)” value (broad panel of kinases [6]; CDK4-cyclinD1) was 99%. The “percent of control binding remaining (lower = stronger binding)” value (broad panel of kinases [6]; CDK4-cyclinD3) was 95%, the “percent of control binding remaining (lower = stronger binding)” value (broad panel of kinases [7]) was 100% and the “percent of control binding remaining (lower = stronger binding)” value (broad panel of kinases [8]) was 100%. The “percent of control binding remaining (lower = stronger binding)” value (broad panel of kinases [9]) was 99%, the “% change compared to control” value (broad panel of kinases [10]; ABL1-nonphosphorylated) was 0.1% and the “% change compared to control” value (broad panel of kinases [10]; ABL1-phosphorylated) was 0%. The “percent of control binding remaining (lower = stronger binding)” value (broad panel of kinases [11]) was 90%, the “percent of control binding remaining (lower = stronger binding)” value (broad panel of kinases [12]) was 99% and the “percent of control binding remaining (lower = stronger binding)” value (broad panel of kinases [13]) was 84%. For the same compound, the “percent of control binding remaining (lower = stronger binding)” value (broad panel of kinases [14]) was 93%, the “percent of control binding remaining (lower = stronger binding)” value (broad panel of kinases [15]) was 25% and the “percent of control binding remaining (lower = stronger binding)” value (broad panel of kinases [16]) was 49%. The “percent of control binding remaining (lower = stronger binding)” value (broad panel of kinases [17]) was 97%, the “% change compared to control” value (broad panel of kinases [18]) was 0.1% and the “% change compared to control” value (broad panel of kinases [19]) was 0%. The “percent of control binding remaining (lower = stronger binding)” value (broad panel of kinases [20]) was 87%, the “percent of control binding remaining (lower = stronger binding)” value (broad panel of kinases [21]) was 0% and the “percent of control binding remaining (lower = stronger binding)” value (broad panel of kinases [22]) was 100%. The “percent of control binding remaining (lower = stronger binding)” value (broad panel of kinases [23]) was 100%, the “% change compared to control” value (broad panel of kinases [24]) was 91% and the “percent of control binding remaining (lower = stronger binding)” value (broad panel of kinases [25]) was 97%. For the same compound, the “percent of control binding remaining (lower = stronger binding)” value (broad panel of kinases [26]) was 6.8%, the “percent of control binding remaining (lower = stronger binding)” value (broad panel of kinases [27]) was 82% and the “percent of control binding remaining (lower = stronger binding)” value (broad panel of kinases [28]) was 92%. For the same compound, the “percent of control binding remaining (lower = stronger binding)” value (broad panel of kinases [29]; RSK1(Kin.Dom.1-N-terminal)) was 91%, the “percent of control binding remaining (lower = stronger binding)” value (broad panel of kinases [29]; RSK1(Kin.Dom.2-C-terminal)) was 100% and the “percent of control binding remaining (lower = stronger binding)” value (broad panel of kinases [30]) was 0.2%. For the same compound, the “percent of control binding remaining (lower = stronger binding)” value (broad panel of kinases [31]) was 95%, the “percent of control binding remaining (lower = stronger binding)” value (broad panel of kinases [32]) was 97% and the “percent of control binding remaining (lower = stronger binding)” value (broad panel of kinases [33]) was 100%. The “percent of control binding remaining (lower = stronger binding)” value (broad panel of kinases [34]) was 97%, the “percent of control binding remaining (lower = stronger binding)” value (broad panel of kinases [35]) was 0% and the “percent of control binding remaining (lower = stronger binding)” value (broad panel of kinases [36]) was 97%.
